# According to patent publication US20100298141A1, “SUBSTITUTED PYRIDINE N-OXIDE HERBICIDES” (E. I. DU PONT DE NEMOURS AND COMPANY, priority 2007, published 2010):
# How the values were obtained:
# winter barley = assay: Test D preemergence test; assay type: in vivo, Hordeum vulgare
# Outline: (§1)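 Seeds planted and treated preemergence with test chemicals formulated in a non-phytotoxic solvent mixture containing surfactant. A dash means no test result.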
# fall panicum = assay: Test G preemergence test; assay type: in vivo, Panicum dichotomiflorum; conditions: scale 0 to 100
# millet foxtail = assay: Test G preemergence test; assay type: in vivo, Setaria italica; conditions: scale 0 to 100
# goosegrass = assay: Test G preemergence test; assay type: in vivo, Eleusine indica; conditions: scale 0 to 100
# eastern black nightshade = assay: Test G preemergence test; assay type: in vivo, Solanum ptycanthum; conditions: scale 0 to 100
# barnyardgrass = assay: Test B flooded paddy test; assay type: in vivo, Echinochloa crus-galli; conditions: Flood, 250 g ai/ha, 13 to 15 days; scale 0 to 100, 0 no effect, 100 complete control
# Source text: (§2) At time of treatment, test pots were flooded to 3 cm above the soil surface, treated by application of test compounds directly to the paddy water, and then maintained at that water depth for the duration of the test. Treated plants and controls were maintained in a greenhouse for 13 to 15 days, after which time all species were compared to controls and visually evaluated. […] A dash (-) response means no test result.
# lambsquarters = assay: Test G preemergence test; assay type: in vivo, Chenopodium album; conditions: scale 0 to 100
# broadleaf signalgrass = assay: Test G preemergence test; assay type: in vivo, Brachiaria platyphylla; conditions: scale 0 to 100
# winter wheat = assay: Test D preemergence test; assay type: in vivo, Triticum aestivum; conditions: scale 0 to 100
# Outline: as §1
# spring wheat = assay: Test D preemergence test; assay type: in vivo, Triticum aestivum; conditions: scale 0 to 100
# Outline: as §1
# umbrella sedge = assay: Test B flooded paddy test; assay type: in vivo, Cyperus difformis; conditions: Flood, 250 g ai/ha, 13 to 15 days; scale 0 to 100, 0 no effect, 100 complete control
# Source text: as §2
# large crabgrass = assay: Test G preemergence test; assay type: in vivo, Digitaria sanguinalis; conditions: scale 0 to 100
# duck salad = assay: Test B flooded paddy test; assay type: in vivo, Heteranthera limosa; conditions: Flood, 250 g ai/ha, 13 to 15 days; scale 0 to 100, 0 no effect, 100 complete control
# Source text: as §2
# windgrass = assay: Test D preemergence test; assay type: in vivo, Apera spica-venti; conditions: scale 0 to 100
# Outline: as §1
# rice = assay: Test B flooded paddy test; assay type: in vivo, Oryza sativa; conditions: Flood, 250 g ai/ha, 13 to 15 days; scale 0 to 100, 0 no effect, 100 complete control
# Source text: as §2
# woolly cupgrass = assay: Test G preemergence test; assay type: in vivo, Eriochloa villosa; conditions: scale 0 to 100
# sorghum = assay: Test G preemergence test; assay type: in vivo, Sorghum vulgare; conditions: scale 0 to 100
# downy bromegrass = assay: Test D preemergence test; assay type: in vivo, Bromus tectorum; conditions: scale 0 to 100
# Outline: as §1
# field violet = assay: Test D preemergence test; assay type: in vivo, Viola arvensis; conditions: scale 0 to 100
# Outline: as §1
# blackgrass = assay: Test D preemergence test; assay type: in vivo, Alopecurus myosuroides; conditions: scale 0 to 100
# Outline: as §1
# yellow foxtail = assay: Test G preemergence test; assay type: in vivo, Pennisetum glaucum; conditions: scale 0 to 100
# tall waterhemp = assay: Test G preemergence test; assay type: in vivo, Amaranthus tuberculatos; conditions: scale 0 to 100
# yellow nutsedge = assay: Test G preemergence test; assay type: in vivo, Cyperus esculentus; conditions: scale 0 to 100
# littleseed canarygrass = assay: Test D preemergence test; assay type: in vivo, Phalaris minor; conditions: scale 0 to 100
# Outline: as §1
# green foxtail = assay: Test D preemergence test; assay type: in vivo, Setaria viridis; conditions: scale 0 to 100
# Outline: as §1
# itchgrass = assay: Test G preemergence test; assay type: in vivo, Rottboellia cochinchinensis; conditions: scale 0 to 100
smiles,measurement,setting,value
Cn1nc(C(F)(F)F)c(CS(=O)(=O)c2ccc(Cl)c[n+]2[O-])c1OC(F)F [Compound 7],"Plant response rating, Barley","winter barley; Preemergence, 62 g ai/ha, scale 0 to 100",0
same,"Plant response rating, Barley","winter barley; Preemergence, 125 g ai/ha, scale 0 to 100",0
same,"Plant response rating, Barley","winter barley; Preemergence, 31 g ai/ha, scale 0 to 100",0
same,"Plant response rating, Barley","winter barley; preemergence, 250 g ai/ha, scale 0 (no effect) to 100 (complete control)",0
same,"Plant response rating, Fall Panicum",fall panicum; 31 g ai/ha,0
same,"Plant response rating, Fall Panicum",fall panicum; 62 g ai/ha,80
same,"Plant response rating, Fall Panicum",fall panicum; 125 g ai/ha,90
same,"Plant response rating, Fall Panicum",fall panicum; 250 g ai/ha,100
same,"Plant response rating, Foxtail, Millet",millet foxtail; 31 g ai/ha,0
same,"Plant response rating, Foxtail, Millet",millet foxtail; 62 g ai/ha,0
same,"Plant response rating, Foxtail, Millet",millet foxtail; 125 g ai/ha,55
same,"Plant response rating, Foxtail, Millet",millet foxtail; 250 g ai/ha,55
same,"Plant response rating, Goosegrass",goosegrass; 31 g ai/ha,50
same,"Plant response rating, Goosegrass",goosegrass; 62 g ai/ha,90
same,"Plant response rating, Goosegrass",goosegrass; 125 g ai/ha,100
same,"Plant response rating, Goosegrass",goosegrass; 250 g ai/ha,100
same,"Plant response rating, Nightshade",eastern black nightshade; 31 g ai/ha,0
same,"Plant response rating, Nightshade",eastern black nightshade; 62 g ai/ha,0
same,"Plant response rating, Nightshade",eastern black nightshade; 125 g ai/ha,0
same,"Plant response rating, Nightshade",eastern black nightshade; 250 g ai/ha,0
same,"Plant response rating, Barnyardgrass",barnyardgrass,80
same,"Plant response rating, Lambsquarters",lambsquarters; 31 g ai/ha,0
same,"Plant response rating, Lambsquarters",lambsquarters; 62 g ai/ha,0
same,"Plant response rating, Lambsquarters",lambsquarters; 125 g ai/ha,0
same,"Plant response rating, Lambsquarters",lambsquarters; 250 g ai/ha,15
same,"Plant response rating, Signalgrass",broadleaf signalgrass; 31 g ai/ha,15
same,"Plant response rating, Signalgrass",broadleaf signalgrass; 62 g ai/ha,35
same,"Plant response rating, Signalgrass",broadleaf signalgrass; 125 g ai/ha,90
same,"Plant response rating, Signalgrass",broadleaf signalgrass; 250 g ai/ha,100
same,"Plant response rating, Wheat, Winter",winter wheat; 31 g ai/ha,0
same,"Plant response rating, Wheat, Winter",winter wheat; 62 g ai/ha,0
same,"Plant response rating, Wheat, Winter",winter wheat; 125 g ai/ha,0
same,"Plant response rating, Wheat, Winter",winter wheat; 250 g ai/ha,0
same,"Plant response rating, Wheat, Spring",spring wheat; 31 g ai/ha,0
same,"Plant response rating, Wheat, Spring",spring wheat; 62 g ai/ha,0
same,"Plant response rating, Wheat, Spring",spring wheat; 125 g ai/ha,0
same,"Plant response rating, Wheat, Spring",spring wheat; 250 g ai/ha,0
same,"Plant response rating, Umbrella Sedge",umbrella sedge,90
same,"Plant response rating, Crabgrass, Large",large crabgrass; 31 g ai/ha,0
same,"Plant response rating, Crabgrass, Large",large crabgrass; 62 g ai/ha,0
same,"Plant response rating, Crabgrass, Large",large crabgrass; 125 g ai/ha,20
same,"Plant response rating, Crabgrass, Large",large crabgrass; 250 g ai/ha,90
same,"Plant response rating, Ducksalad",duck salad,90
same,"Plant response rating, Windgrass",windgrass; 31 g ai/ha,65
same,"Plant response rating, Windgrass",windgrass; 62 g ai/ha,100
same,"Plant response rating, Windgrass",windgrass; 125 g ai/ha,100
same,"Plant response rating, Windgrass",windgrass; 250 g ai/ha,100
same,"Plant response rating, Rice, Transplanted",rice,70
same,"Plant response rating, Cupgrass, Woolly",woolly cupgrass; 31 g ai/ha,0
same,"Plant response rating, Cupgrass, Woolly",woolly cupgrass; 62 g ai/ha,60
same,"Plant response rating, Cupgrass, Woolly",woolly cupgrass; 125 g ai/ha,75
same,"Plant response rating, Cupgrass, Woolly",woolly cupgrass; 250 g ai/ha,80
same,"Plant response rating, Sorghum",sorghum; 31 g ai/ha,0
same,"Plant response rating, Sorghum",sorghum; 62 g ai/ha,0
same,"Plant response rating, Sorghum",sorghum; 125 g ai/ha,0
same,"Plant response rating, Sorghum",sorghum; 250 g ai/ha,20
same,"Plant response rating, Bromegrass, Downy",downy bromegrass; 31 g ai/ha,0
same,"Plant response rating, Bromegrass, Downy",downy bromegrass; 62 g ai/ha,20
same,"Plant response rating, Bromegrass, Downy",downy bromegrass; 125 g ai/ha,25
same,"Plant response rating, Bromegrass, Downy",downy bromegrass; 250 g ai/ha,35
same,"Plant response rating, Field Violet",field violet; 31 g ai/ha,0
same,"Plant response rating, Field Violet",field violet; 62 g ai/ha,0
same,"Plant response rating, Field Violet",field violet; 125 g ai/ha,0
same,"Plant response rating, Field Violet",field violet; 250 g ai/ha,30
same,"Plant response rating, Blackgrass",blackgrass; 31 g ai/ha,0
same,"Plant response rating, Blackgrass",blackgrass; 62 g ai/ha,0
same,"Plant response rating, Blackgrass",blackgrass; 125 g ai/ha,0
same,"Plant response rating, Blackgrass",blackgrass; 250 g ai/ha,80
same,"Plant response rating, Foxtail, Yellow",yellow foxtail; 31 g ai/ha,0
same,"Plant response rating, Foxtail, Yellow",yellow foxtail; 62 g ai/ha,50
same,"Plant response rating, Foxtail, Yellow",yellow foxtail; 125 g ai/ha,95
same,"Plant response rating, Foxtail, Yellow",yellow foxtail; 250 g ai/ha,100
same,"Plant response rating, Waterhemp",tall waterhemp; 31 g ai/ha,15
same,"Plant response rating, Waterhemp",tall waterhemp; 62 g ai/ha,60
same,"Plant response rating, Waterhemp",tall waterhemp; 125 g ai/ha,100
same,"Plant response rating, Waterhemp",tall waterhemp; 250 g ai/ha,100
same,"Plant response rating, Nutsedge, Yellow",yellow nutsedge; 31 g ai/ha,0
same,"Plant response rating, Nutsedge, Yellow",yellow nutsedge; 62 g ai/ha,0
same,"Plant response rating, Nutsedge, Yellow",yellow nutsedge; 125 g ai/ha,0
same,"Plant response rating, Nutsedge, Yellow",yellow nutsedge; 250 g ai/ha,0
same,"Plant response rating, Canarygrass",littleseed canarygrass; 31 g ai/ha,0
same,"Plant response rating, Canarygrass",littleseed canarygrass; 62 g ai/ha,0
same,"Plant response rating, Canarygrass",littleseed canarygrass; 125 g ai/ha,20
same,"Plant response rating, Canarygrass",littleseed canarygrass; 250 g ai/ha,100
same,"Plant response rating, Foxtail, Green",green foxtail; 31 g ai/ha,0
same,"Plant response rating, Foxtail, Green",green foxtail; 62 g ai/ha,20
same,"Plant response rating, Foxtail, Green",green foxtail; 125 g ai/ha,20
same,"Plant response rating, Foxtail, Green",green foxtail; 250 g ai/ha,55
same,"Plant response rating, Itchgrass",itchgrass; 31 g ai/ha,0
same,"Plant response rating, Itchgrass",itchgrass; 62 g ai/ha,0
same,"Plant response rating, Itchgrass",itchgrass; 125 g ai/ha,25
same,"Plant response rating, Itchgrass",itchgrass; 250 g ai/ha,25
